Values quoted from earlier work as cited in PubChem BioAssay AID1259409 (Chemical Carcinogenesis Research Information System (CCRIS), 2018).

Tested on: rodent chemically induced tumor inhibition, incidence and multiplicity
Test: CCRIS tumor inhibitor studies
Description: The CCRIS database contains chemical records with carcinogenicity, mutagenicity, tumor promotion, and tumor inhibition test results. It was developed by the National Cancer Institute (NCI). Data are derived from studies cited in primary journals, current awareness tools, NCI reports, and other sources. Test results have been reviewed by experts in carcinogenesis and mutagenesis.
CCRIS provides historical information from the years 1985 - 2011. It is no longer updated.
This is an archive assay for CCRIS tumor inhibitor studies.

Cc1cc2nc3c(=O)[nH]c(=O)nc-3n(C[C@H](O)[C@H](O)[C@H](O)CO)c2cc1C
tumour outcome (control, treated, inhibition, significance) (Carcinogen: 7,12-DIMETHYLBENZ[A]ANTHRACENE, 57-97-6, Dose [Inhibitor]: 2 MG IN DRINKING WATER DAILY STARTING 4 WK BEFORE CARCINOGEN TREATMENT AND CONTINUING FOR DURATION OF THE STUDY (STUDY D, Route [Inhibitor]: ORAL, Species: MOUSE, Strain/Sex: 101/MALE, FEMALE, Target Tissue: Type of Lesion: SKIN: PAPILLOMA, Dose [Carcinogen]: 225 UG IN 0.15 ML ACETONE ONCE, Promoter: CROTON OIL, 8001-28-3): 17/19 (89%), 19/19 (100%), -12%, not calculated | tumour outcome (control, treated, inhibition, significance) (Carcinogen: BENZO[A]PYRENE, 50-32-8, Dose [Inhibitor]: 0.2% IN DIET DAILY STARTING 4 WK BEFORE START OF CARCINOGEN TREATMENT AND CONTINUING FOR DURATION OF STUDY (STUDY DURATI, Route [Inhibitor]: ORAL, Species: MOUSE, Strain/Sex: 101/MALE, FEMALE, Target Tissue: Type of Lesion: SKIN: TUMOR (BENIGN, MALIGNANT), Dose [Carcinogen]: 0.2 ML OF 0.025% SOLUTION IN ACETONE 2/WK FOR 23 WK STARTING 4 WK AFTER STAR OF AGENT TREATMENT, Promoter: NONE USED): 21/30 (70%), 25/28 (89%), -27%, not calculated | tumour outcome (control, treated, inhibition, significance) (Carcinogen: BENZO[A]PYRENE, 50-32-8, Dose [Inhibitor]: 0.25 MG 2/WK FOR 24 WK STARTING 4 WK BEFORE START OF CARCINOGEN TREATMENT AN D CONTINUING FOR DURATION OF STUDY (STUDY D, Route [Inhibitor]: SUBCUTANEOUS, Species: MOUSE, Strain/Sex: 101/MALE, FEMALE, Target Tissue: Type of Lesion: SKIN: MALIGNANT TUMOR, Dose [Carcinogen]: 0.2 ML OF 0.25% 2/WK FOR 20 WK, Promoter: NONE USED): 12/18 (67%), 8/19 (42%), 37%, not calculated | tumour outcome (control, treated, inhibition, significance) (Carcinogen: BENZO[A]PYRENE, 50-32-8, Dose [Inhibitor]: 0.6% IN DIET DAILY STARTING 4 WK BEFORE START OF CARCINOGEN TREATMENT AND CONTINUING FOR DURATION OF STUDY (STUDY DURATI, Route [Inhibitor]: ORAL, Species: MOUSE, Strain/Sex: 101/MALE, FEMALE, Target Tissue: Type of Lesion: SKIN: TUMOR (BENIGN, MALIGNANT), Dose [Carcinogen]: 0.2 ML OF 0.025% SOLUTION IN ACETONE 2/WK FOR 23 WK, Promoter: NONE USED): 21/30 (70%), 32/37 (86%), -23%, not calculated | tumour outcome (control, treated, inhibition, significance) (Carcinogen: BENZO[A]PYRENE, 50-32-8, Dose [Inhibitor]: 2.5 MG 2/WK FOR 24 WK STARTING 4 WK BEFORE START OF CARCINOGEN TREATMENT AND CONTINUING FOR DURATION OF STUDY (STUDY DUR, Route [Inhibitor]: SUBCUTANEOUS, Species: MOUSE, Strain/Sex: 101/MALE, FEMALE, Target Tissue: Type of Lesion: SKIN: PAPILLOMA, Dose [Carcinogen]: 0.2 ML OF 0.25% 2/WK FOR 20 WK, Promoter: NONE USED): 13/18 (72%), 8/19 (42%), 42%, not calculated | tumour outcome (control, treated, inhibition, significance) (Carcinogen: UV IRRADIATION, Dose [Inhibitor]: 15 MG/ML DRINKING WATER DAILY FOR DURATION OF STUDY (STUDY DURATION: 11 MO), Route [Inhibitor]: ORAL, Species: MOUSE, Strain/Sex: HR-HAIRLESS/MALE, Target Tissue: Type of Lesion: SKIN: SQUAMOUS CELL CARCINOMA, Dose [Carcinogen]: 5 MIN/D 6 D/WK FOR DURATION OF STUDY, Promoter: NONE USED): 6/6 (100%), 6/6 (100%), 0%, not significant | tumour outcome (control, treated, inhibition, significance) (Carcinogen: UV IRRADIATION, Dose [Inhibitor]: 15 MG/ML PROPYLENE GLYCOL DAILY FOR DURATION OF STUDY (STUDY DURATION: 11 MO), Route [Inhibitor]: DERMAL, Species: MOUSE, Strain/Sex: HR-HAIRLESS/MALE, Target Tissue: Type of Lesion: SKIN: SQUAMOUS CELL CARCINOMA, Dose [Carcinogen]: 5 MIN/D 6 D/WK FOR DURATION OF STUDY, Promoter: NONE USED): 6/6 (100%), 7/7 (100%), 0%, not significant

CCCCCCCCCCCCC/C=C/[C@@H](O)[C@H](COP(=O)(O)OCC[N+](C)(C)C)NC=O
tumour outcome (control, treated, inhibition, significance) (Carcinogen: 1,2-DIMETHYLHYDRAZINE DIHYDROCHLORIDE, 306-37-6, Dose [Inhibitor]: 0, 0.025 G/100 G DIET FOR 28 WK BEGINNING 1 WK POST CARCINOGEN TREATMENT (STUDY DURATION: 59 WK), Route [Inhibitor]: ORAL, Species: MOUSE, Strain/Sex: CF-1/FEMALE, Target Tissue: Type of Lesion: COLON: TUMOR, Dose [Carcinogen]: 20 MG/KG BW 1/WK FOR 6 WK, Promoter: NONE USED): 7/15 (47%), 2/10 (20%), 57%, p=0.08 | tumour outcome (control, treated, inhibition, significance) (Carcinogen: 1,2-DIMETHYLHYDRAZINE DIHYDROCHLORIDE, 306-37-6, Dose [Inhibitor]: 0, 0.05 G/100 G DIET FOR 28 WK BEGINNING 1 WK POST CARCINOGEN TREATMENT (STUDY DURATION: 59 WK), Route [Inhibitor]: ORAL, Species: MOUSE, Strain/Sex: CF-1/FEMALE, Target Tissue: Type of Lesion: COLON: TUMOR, Dose [Carcinogen]: 20 MG/KG BW 1/WK FOR 6 WK, Promoter: NONE USED): 7/15 (47%), 3/14 (21%), 55%, p=0.08 | tumour outcome (control, treated, inhibition, significance) (Carcinogen: 1,2-DIMETHYLHYDRAZINE DIHYDROCHLORIDE, 306-37-6, Dose [Inhibitor]: 0, 0.1 G/100 G DIET FOR 28 WK BEGINNING 1 WK POST CARCINOGEN TREATMENT (STUDY DURATION: 59 WK), Route [Inhibitor]: ORAL, Species: MOUSE, Strain/Sex: CF-1/FEMALE, Target Tissue: Type of Lesion: COLON: TUMOR, Dose [Carcinogen]: 20 MG/KG BW 1/WK FOR 6 WK, Promoter: NONE USED): 7/15 (47%), 2/10 (20%), 57%, p=0.08

Nc1ncn([C@H]2C[C@H](O)[C@@H](CO)O2)c(=O)n1
tumour outcome (control, treated, inhibition, significance) (Carcinogen: 4-(METHYLNITROSAMINO)-1-(3-PYRIDIYL)-1-BUTANONE, 64091-91-4, Dose [Inhibitor]: 0, 1 MG/KG 3/WK FOR 12 WK THEN 0, 0.5 MG/KG FOR 12 WK BEGINNING 1 WK PRIOR TO CARCINOGEN TREATMENT (STUDY DURATION: 24 W, Dose [Inhibitor]: 0, 1 MG/KG 3/WK FOR 12 WK THEN 0, 0.5 MG/KG FOR 12 WK BEGINNING 1 WK PRIOR TO CARCINOGEN TREATMENT (STUDY DURATION: 24 W, Route [Inhibitor]: INTRAPERITONEAL, Species: MOUSE, Strain/Sex: C3AF1/MALE, Target Tissue: Type of Lesion: LUNG: TUMOR, Dose [Carcinogen]: 3.9 MG/MOUSE (TOTAL DOSE) ADMINISTERED IN TWO WEEKLY DOSES OF 1.9 TO 2 MG, Promoter: NONE USED): 100%, 77%, 23%, not significant

Oc1ccc(C2=Cc3ccc(O)cc3OC2)cc1
tumour outcome (control, treated, inhibition, significance) (Carcinogen: 7,12-DIMETHYLBENZ[A]ANTHRACENE, 57-97-6, Dose [Inhibitor]: 0, 50 MG/KG IN DIET FOR 117 D (STUDY DURATION: 117 D), Route [Inhibitor]: ORAL, Species: RAT, Strain/Sex: SPRAGUE-DAWLEY/FEMALE, Target Tissue: Type of Lesion: MAMMARY GLAND: TUMOR, Dose [Carcinogen]: 15 MG IN SESAME OIL, ONCE, 7 D AFTER FIRST INHIBITOR DOSE): 15/16 (94.7%), 12/18 (65%), 31.4%, p< 0.05 | tumour outcome (control, treated, inhibition, significance) (Carcinogen: 7,12-DIMETHYLBENZ[A]ANTHRACENE, 57-97-6, Dose [Inhibitor]: 0, 75 MG/KG IN DIET FOR 117 D (STUDY DURATION: 117 D), Route [Inhibitor]: ORAL, Species: RAT, Strain/Sex: SPRAGUE-DAWLEY/FEMALE, Target Tissue: Type of Lesion: MAMMARY GLAND: TUMOR, Dose [Carcinogen]: 15 MG IN SESAME OIL, ONCE, 7 D AFTER FIRST INHIBITOR DOSE): 15/16 (94.7%), 12/17 (70%), 26.1%, p< 0.05

CC(=O)O[C@H]1CC[C@@]2(C)C(=CC[C@@H]3[C@@H]2CC[C@]2(C)C(=O)CC[C@@H]32)C1
tumour outcome (control, treated, inhibition, significance) (Carcinogen: 7,12-DIMETHYLBENZ[A]ANTHRACENE, 57-97-6, Dose [Inhibitor]: 0, 5 MG/100 G BW 1/WK FOR 150 D BEGINNING POST CARCINOGEN TREATMENT (STUDY DURATION: 150 D), Route [Inhibitor]: SUBCUTANEOUS, Species: RAT, Strain/Sex: WISTAR/FEMALE, Target Tissue: Type of Lesion: MAMMARY GLAND: ADENOCARCINOMA, Dose [Carcinogen]: 4 MG IN 0.1 ML OF SESAME OIL INJECTED ONCE INTO THE EXPOSED MAMMARY TISSUE OF HYPERPROLACTINEMIC RATS ON DAY 73 OF AGE, Promoter: NONE USED): 8/11 (73%), 0/10 (0%), 100%, p<0.01

CCCC(=O)OC[C@@H](OC(=O)CCC)[C@@H](OC(=O)CCC)[C@H](Cn1c2nc(=O)[nH]c(=O)c-2nc2cc(C)c(C)cc21)OC(=O)CCC
tumour outcome (control, treated, inhibition, significance) (Carcinogen: 3-METHYLCHOLANTHRENE, 56-49-5, Dose [Inhibitor]: 0.1% IN 0.05 ML ACETONE 2 HR AFTER APPLICATION OF THE CARCINOGEN THEN 1/2 D (STUDY DURATION: 15 WK), Route [Inhibitor]: DERMAL, Species: MOUSE, Strain/Sex: DDY/FEMALE, Target Tissue: Type of Lesion: SKIN: PAPILLOMA, Dose [Carcinogen]: 0.3% IN 0.05 ML ACETONE 2/WK, Promoter: NONE USED): 7/50 (14%), 2/49 (4%), 71%, not calculated | tumour outcome (control, treated, inhibition, significance) (Carcinogen: 3-METHYLCHOLANTHRENE, 56-49-5, Dose [Inhibitor]: 0.1% IN 0.05 ML ACETONE 2 HR AFTER APPLICATION OF THE CARCINOGEN THEN 1/2 D (STUDY DURATION: 15 WK), Route [Inhibitor]: DERMAL, Species: MOUSE, Strain/Sex: DDY/FEMALE, Target Tissue: Type of Lesion: SKIN: SQUAMOUS CELL CARCINOMA, Dose [Carcinogen]: 0.3% IN 0.05 ML ACETONE 2/WK, Promoter: NONE USED): 34/50 (68%), 20/49 (41%), 40%, p<0.01
